Target: T1, AlaRS^R329H (Homo sapiens, UniProt P49588, R329H)
T1 construct: made in house; host or cells: E. coli BL21 (DE3), pET-21a
T1 sequence (P49588 1-968 R329H): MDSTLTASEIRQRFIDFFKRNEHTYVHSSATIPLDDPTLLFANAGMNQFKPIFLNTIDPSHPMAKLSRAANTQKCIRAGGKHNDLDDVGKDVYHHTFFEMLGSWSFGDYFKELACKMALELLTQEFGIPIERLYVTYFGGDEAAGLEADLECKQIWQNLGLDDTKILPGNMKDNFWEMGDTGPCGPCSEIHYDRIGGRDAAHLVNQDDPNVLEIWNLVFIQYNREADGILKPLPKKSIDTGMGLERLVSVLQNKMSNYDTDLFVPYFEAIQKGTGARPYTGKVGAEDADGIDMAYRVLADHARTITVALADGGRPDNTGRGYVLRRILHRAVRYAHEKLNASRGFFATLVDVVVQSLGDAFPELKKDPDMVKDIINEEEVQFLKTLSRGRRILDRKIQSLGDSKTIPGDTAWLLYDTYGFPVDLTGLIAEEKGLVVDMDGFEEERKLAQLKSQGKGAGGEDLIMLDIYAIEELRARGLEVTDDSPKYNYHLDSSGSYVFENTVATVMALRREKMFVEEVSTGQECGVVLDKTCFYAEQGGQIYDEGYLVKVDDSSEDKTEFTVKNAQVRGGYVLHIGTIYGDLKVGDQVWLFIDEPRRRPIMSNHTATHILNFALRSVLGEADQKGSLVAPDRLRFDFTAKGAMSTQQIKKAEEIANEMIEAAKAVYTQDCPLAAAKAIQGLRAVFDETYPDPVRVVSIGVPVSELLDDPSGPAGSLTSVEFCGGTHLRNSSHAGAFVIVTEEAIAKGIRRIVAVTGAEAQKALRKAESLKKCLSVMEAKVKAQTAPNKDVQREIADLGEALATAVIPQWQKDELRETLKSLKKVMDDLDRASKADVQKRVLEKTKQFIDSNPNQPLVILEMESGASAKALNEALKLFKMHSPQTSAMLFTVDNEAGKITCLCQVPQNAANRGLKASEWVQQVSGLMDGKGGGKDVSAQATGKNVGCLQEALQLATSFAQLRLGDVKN
Test: ATP consumption assay (enzyme inhibition)
Type: biochemical
Conditions: 1 μM AlaRS^R329H at 20 μM compounds; vs DMSO control
Protocol: We further investigated the effects of the four small molecules on the enzymatic activity of the AlaRS^R329H protein using an ATP consumption assay. All four compounds affected enzymatic activity to varying degrees. […] The ATP consumption assay was used to evaluate the enzymatic inhibitory activity of the compounds. A 30 μL reaction mixture, containing 1 μM AlaRS mutants, 25 μM ATP, 50 μM L-alanine, 30 mM HEPES (pH 7.5), 150 mM NaCl, 30 mM KCl, 40 mM MgCl2, 0.1% BSA, and varying concentrations of Tanshinone I, was incubated at room temperature for 15 min. After incubation, 10 μL of the mixture was transferred to a 384-well microplate, and AlaRS mutant activity was measured by adding 10 μL of the ATP Assay Kit (#S0026, Beyotime, Shanghai, China). Luminescence was recorded using a Synergy HTX multimode microplate reader (BioTek Inc., Winooski, VT, USA). The inhibitory rate was calculated from three independent assays to ensure the accurate assessment of Tanshinone I’s inhibitory activity. The experiment was repeated three times.

SMILES: Cc1coc2c1C(=O)C(=O)c1c-2ccc2c(C)cccc12 [Tanshinone I]
- Relative Activity (relative enzyme activity of the first step): 26.2%

Reference: PMC11509018, “Evaluation of the Role of Tanshinone I in an In Vitro System of Charcot-Marie-Tooth Disease Type 2N” (International Journal of Molecular Sciences, 2024)
